{"source": "patent US7439262B1", "about": "“Substituted 1-alkylamino-1-H-indazoles for the treatment of glaucoma” (Alcon, Inc., priority 2003, dated 2008)", "key": {"5-HT2A [1]": {"target": "T1, 5-HT2A (Rattus norvegicus, UniProt P14842)", "T1 sequence (P14842 whole entry)": "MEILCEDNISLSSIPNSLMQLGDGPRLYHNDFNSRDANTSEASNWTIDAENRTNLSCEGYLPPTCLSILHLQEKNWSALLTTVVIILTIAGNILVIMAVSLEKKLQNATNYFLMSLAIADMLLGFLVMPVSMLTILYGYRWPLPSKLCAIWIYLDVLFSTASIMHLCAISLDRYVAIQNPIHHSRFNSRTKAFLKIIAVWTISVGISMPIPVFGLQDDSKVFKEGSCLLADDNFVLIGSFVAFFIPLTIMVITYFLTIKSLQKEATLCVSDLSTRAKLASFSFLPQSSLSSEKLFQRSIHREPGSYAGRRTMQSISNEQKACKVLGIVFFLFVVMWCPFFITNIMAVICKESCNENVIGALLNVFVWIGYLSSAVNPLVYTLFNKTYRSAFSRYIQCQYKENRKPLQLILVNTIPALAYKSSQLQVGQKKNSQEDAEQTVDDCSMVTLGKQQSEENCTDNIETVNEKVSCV", "assay": "5-HT2 Receptor Binding Assay ([125I]DOI competition)", "conditions": "[125I]DOI binding, post mortem rat or human cerebral cortex homogenates", "method": "5-HT2 Receptor Binding Assay\nAliquots of post mortem rat or human cerebral cortex homogenates (400 μL) dispersed in 50 mM Tris HCl buffer (pH 7.4) are incubated with [^125I]DOI (80 pM final) in the absence or presence of methiothepin (10 μM final) to define total and non-specific binding, respectively, in a total volume of 0.5 mL. The assay mixture is incubated for 1 hour at 23° C. in polypropylene tubes and the assays terminated by rapid vacuum filtration over Whatman GF/13 glass fiber filters previously soaked in 0.3% polyethyleneimine using ice-cold buffer. Test compounds (at different concentrations) are substituted for methiothepin. Filter-bound radioactivity is determined by scintillation spectrometry on a beta counter. The data are analyzed using a non-linear, iterative curve-fitting computer program [Trends Pharmacol. Sci., 16, 413 (1995)] to determine the compound affinity parameter. The concentration of the compound needed to inhibit the [^125I]DOI binding by 50% of the maximum is termed the […]."}, "5-HT2A [2]": {"target": "T1, 5-HT2A", "assay": "5-HT2 Functional Assay: [Ca2+]i Mobilization (FLIPR)", "assay_type": "cell-based", "design": "endogenous in cells; host or cells: A7r5 rat vascular smooth muscle cells", "conditions": "for EC50: [Ca2+]i mobilization, A7r5 rat vascular smooth muscle cells; for Emax: percentage of a maximum 5-HT-induced response, A7r5 cells", "method": "5-HT2 Functional Assay: [Ca^2+]i Mobilization\nThe receptor-mediated mobilization on intracellular calcium ([Ca^2+]i) was studied using the Fluorescence Imaging Plate Reader (FLIPR) instrument. Rat vascular smooth muscle cells, A7r5, were grown in a normal media of DMEM/10% FBS and 10 μg/mL gentamycin. Confluent cell monolayers were trypsinized, pelleted, and re-suspended in normal media. Cells were seeded in a 50 μL volume at a density of 20,000 cells/well in a black wall, 96-well tissue culture plate and grown for 2 days.\nOn the day of the experiment, one vial of FLIPR Calcium Assay Kit dye was re-suspended in 50 mL of a FLIPR buffer consisting of Hank's Balanced Salt Solution (HBSS), 20 mM HEPES, and 2.5 mM probenecid, pH 7.4. Cells were loaded with the calcium-sensitive dye by addition of an equal volume ([…]) to each well of the 96-well plate and incubated with dye for 1 h at 23° C.\nTypically, test compounds were stored at 25 μM in 50% DMSO/50% Ethanol solvent. Compounds were diluted 1:50 in 20% DMSO/20% Ethanol. For “hit” screening, compounds were further diluted 1:10 in FLIPR buffer and tested at a final concentration of 10 μM. For dose-response experiments, compounds were diluted 1:50 in FLIPR buffer and serially diluted 1:10 to give a 5- or 8-point dose-response curve.\nThe compound plate and cell plate were placed in the FLIPR instrument. At the beginning of an experimental run, a signal test was performed to check the basal fluorescence signal from the dye-loaded cells and the uniformity of the signal across the plate. The basal fluorescence was adjusted between 8000-12000 counts by modifying the exposure time, the camera F-stop, or the laser power. Instrument settings for a typical assay were the following: laser power 0.3-0.6 W, camera F-stop F/2, and exposure time 0.4 sec. An aliquot (25 μL) of the test compound was added to the existing 100 μL dye-loaded cells at a dispensing speed of 50 μL/sec. Fluorescence data were collected in real-time at 1.0 sec intervals for the first 60 secs and at 6.0 sec intervals for an additional 120 secs. Responses were measured as peak fluorescence intensity minus basal and where appropriate were expressed as a percentage of a maximum 5-HT-induced response [Emax %]. When the compounds were tested as antagonists against 10 μM 5-HT, they were incubated with the cells for 15 minutes prior to the addition of 5-HT."}}, "note": "Counter-ions that a name gives are not always drawn.", "data": [{"molecule": "CCOC(=O)c1ccc2cnn(C[C@H](C)N)c2c1", "note": "(as salt: fumaric acid salt) [Example 1, 1-((S)-2-Aminopropyl)-1H-indazole-6-carboxylic acid ethyl ester]", "values": [{"measurement": "melting point", "value": "150 to 152", "unit": "°C"}]}, {"molecule": "CCOC(=O)c1ccc2cnn(C[C@H](C)N)c2c1", "note": "[Example 1, 1-((S)-2-Aminopropyl)-1H-indazole-6-carboxylic acid ethyl ester]", "values": [{"measurement": "IC50", "setting": "5-HT2A [1]", "value": 10, "unit": "nM"}, {"measurement": "EC50", "setting": "5-HT2A [2]", "value": 837, "unit": "nM"}, {"measurement": "Emax", "setting": "5-HT2A [2]", "value": 86, "unit": "%"}]}, {"molecule": "C[C@H](N)Cn1ncc2ccc(C(N)=O)cc21", "note": "[Example 2, 1-((S)-2-Aminopropyl)-1H-indazole-6-carboxylic acid amide]", "values": [{"measurement": "IC50", "setting": "5-HT2A [1]", "value": 5.9, "unit": "nM"}, {"measurement": "melting point", "value": "170 to 172", "unit": "°C"}, {"measurement": "EC50", "setting": "5-HT2A [2]", "value": 465, "unit": "nM"}, {"measurement": "Emax", "setting": "5-HT2A [2]", "value": 90, "unit": "%"}]}]}
